What was measured:
[1] = target: Human SGLT1 (hSGLT1) (Homo sapiens (Human), UniProt P13866); assay: Inhibitory effects on human SGLT1 activities (14C-AMG uptake, sodium-dependent glucose transport assay); type: cell-based; settings: 37° C. for 2 h, single determinations
Protocol: Test 3: Inhibitory Effects on Human SGLT1 Activities
(§1) For sodium-dependent glucose transport assay, cells expressing […] were seeded into a 96-well culture plate at a density of 5×10^4 cells/well in RPMI medium 1640 containing 10% fetal bovine serum. The cells were used 1 day after plating. They were incubated in pretreatment buffer (10 mM HEPES, 5 mM Tris, 140 mM choline chloride, 2 mM KCl, 1 mM CaCl2, and 1 mM MgCl2, pH 7.4) at 37° C. for 10 min. They were then incubated in uptake buffer (10 mM HEPES, 5 mM Tris, 140 mM NaCl, 2 mM KCl, 1 mM CaCl2, 1 mM MgCl2, and 1 mM ^14C-nonlabeled AMG pH 7.4) containing ^14C-labeled (8 μM) and inhibitor or dimethyl sulfoxide (DMSO) vehicle at 37° C. for 2 h. Cells were washed twice with washing buffer (pretreatment buffer containing 10 mM AMG at room temperature) and then the radioactivity was measured using a liquid scintillation counter. IC50 was determined by nonlinear regression analysis using GraphPad PRISM.

[2] = target: Human SGLT2 (hSGLT2) (Homo sapiens (Human), UniProt P31639); assay: Inhibitory effects on human SGLT2 activities (14C-AMG uptake, sodium-dependent glucose transport assay); type: cell-based; settings: hSGLT2-expressing CHO cells, 37° C. for 2 h, single determinations
Human SGLT2 (hSGLT2), sequence (P31639 whole entry): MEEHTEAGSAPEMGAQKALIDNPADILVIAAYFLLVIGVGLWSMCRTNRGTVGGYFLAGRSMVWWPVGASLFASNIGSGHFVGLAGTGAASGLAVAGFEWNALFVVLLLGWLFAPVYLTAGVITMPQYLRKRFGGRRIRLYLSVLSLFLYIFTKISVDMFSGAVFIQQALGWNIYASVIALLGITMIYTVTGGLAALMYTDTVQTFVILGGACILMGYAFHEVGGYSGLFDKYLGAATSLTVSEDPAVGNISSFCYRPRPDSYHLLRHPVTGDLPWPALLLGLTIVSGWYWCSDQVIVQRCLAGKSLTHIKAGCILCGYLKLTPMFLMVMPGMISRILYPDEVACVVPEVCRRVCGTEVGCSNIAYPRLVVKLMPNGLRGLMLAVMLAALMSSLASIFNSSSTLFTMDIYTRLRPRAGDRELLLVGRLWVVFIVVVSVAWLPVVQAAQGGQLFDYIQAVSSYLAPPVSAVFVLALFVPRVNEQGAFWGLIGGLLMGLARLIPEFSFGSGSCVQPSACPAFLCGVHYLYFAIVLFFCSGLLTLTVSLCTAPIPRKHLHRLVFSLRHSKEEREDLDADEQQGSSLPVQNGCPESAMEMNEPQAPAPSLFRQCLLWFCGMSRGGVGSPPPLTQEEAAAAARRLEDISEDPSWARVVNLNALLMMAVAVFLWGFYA
From the text: Test 1: Cloning and Cell Line Construction for Human SGLT2
Human SGLT2 (hSGLT2) gene was amplified by PCR from cDNA-Human Adult Normal Tissue Kidney (Invitrogen). The hSGLT2 sequence was cloned into pcDNA3.1(+) for mammalian expression and stably transfected into chinese hamster ovary (CHO) cells. SGLT2-expressing clones were selected based on resistance to G418 antibiotic (Geneticin) and activity in the ^14C-α-methyl-D-glucopyranoside (^14C-AMG) uptake assay.
Test 2: Inhibitory Effects on Human SGLT2 Activities
as §1, with “^14C-labeled AMG” for “^14C-labeled”, “the inventive compound” for “inhibitor”, “PRISM [Katsuno, K. et al. J. Pharmacol. Exp. Ther. 2007, 320, 323-330; Han, S. et al. Diabetes, 2008, 57, 1723-1729].” for “PRISM.”

Human SGLT1 (hSGLT1), sequence (P13866 whole entry): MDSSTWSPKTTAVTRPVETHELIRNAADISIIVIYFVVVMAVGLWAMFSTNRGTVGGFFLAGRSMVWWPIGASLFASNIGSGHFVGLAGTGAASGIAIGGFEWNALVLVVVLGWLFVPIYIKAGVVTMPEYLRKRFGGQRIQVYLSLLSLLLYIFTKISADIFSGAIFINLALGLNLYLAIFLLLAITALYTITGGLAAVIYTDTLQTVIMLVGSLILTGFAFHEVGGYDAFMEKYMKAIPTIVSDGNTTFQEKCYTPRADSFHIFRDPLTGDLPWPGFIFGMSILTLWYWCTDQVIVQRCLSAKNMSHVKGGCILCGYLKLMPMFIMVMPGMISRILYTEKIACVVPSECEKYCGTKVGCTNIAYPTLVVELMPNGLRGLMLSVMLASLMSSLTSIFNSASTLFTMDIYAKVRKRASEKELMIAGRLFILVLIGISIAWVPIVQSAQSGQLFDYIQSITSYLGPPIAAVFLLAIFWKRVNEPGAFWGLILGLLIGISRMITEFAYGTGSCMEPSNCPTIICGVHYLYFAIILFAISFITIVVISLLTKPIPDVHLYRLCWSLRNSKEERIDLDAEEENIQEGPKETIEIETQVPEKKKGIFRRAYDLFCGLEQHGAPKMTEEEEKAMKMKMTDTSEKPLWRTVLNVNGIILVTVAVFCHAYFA

SMILES	IC50 [1] [nM]	IC50 [2] [nM]
Cc1ccc(Cc2cc([C@@H]3O[C@H](CO)[C@@H](O)[C@H](O)[C@H]3O)c3c(c2C)OCO3)cc1 [Compound E061, (2R,3S,4R,5R,6S)-2-(Hydroxymethyl)-6-(7-methyl-6-(4-methylbenzyl)benzo[d][1,3]dioxol-4-yl)tetrahydro-2H-pyran-3,4,5-triol]	27	1.7
CCc1ccc(Cc2cc([C@@H]3O[C@H](CO)[C@@H](O)[C@H](O)[C@H]3O)c3c(c2Cl)SCC3)cc1 [Compound E035, (2S,3R,4R,5S,6R)-2-(7-Chloro-6-(4-ethylbenzyl)-2,3-dihydrobenzo[b]thiophen-4-yl)-6-(hydroxymethyl)tetrahydro-2H-pyran-3,4,5-triol]	53	0.87
COc1ccc(Cc2cc([C@@H]3O[C@H](CO)[C@@H](O)[C@H](O)[C@H]3O)c3c(c2Cl)SCC3)cc1 [Compound E034, (2S,3R,4R,5S,6R)-2-(7-Chloro-6-(4-methoxybenzyl)-2,3-dihydrobenzo[b]thiophen-4-yl)-6-(hydroxymethyl)tetrahydro-2H-pyran-3,4,5-triol]	27.6	0.9
Cc1ccc(Cc2cc([C@@H]3O[C@H](CO)[C@@H](O)[C@H](O)[C@H]3O)c3c(c2Cl)OCCC3)cc1 [Compound E045, (2S,3R,4R,5S,6R)-2-(8-Chloro-7-(4-methylbenzyl)chroman-5-yl)-6-(hydroxymethyl)tetrahydro-2H-pyran-3,4,5-triol]	36.7	1.9
Cc1ccc(Cc2cc([C@@H]3O[C@H](CO)[C@@H](O)[C@H](O)[C@H]3O)c3c(c2Cl)OCO3)cc1 [Compound E040, (2S,3R,4R,5S,6R)-2-(7-Chloro-6-(4-methylbenzyl)benzo[d][1,3]dioxol-4-yl)-6-(hydroxymethyl)tetrahydro-2H-pyran-3,4,5-triol]	94.6	1
CCOc1ccc(Cc2cc([C@@H]3O[C@H](CO)[C@@H](O)[C@H](O)[C@H]3O)c3c(c2C)OCO3)cc1 [Compound E065, (2S,3R,4R,5S,6R)-2-(6-(4-Ethoxybenzyl)-7-methylbenzo[d][1,3]dioxol-4-yl)-6-(hydroxymethyl)tetrahydro-2H-pyran-3,4,5-triol]	155	1.6
COc1ccc(Cc2cc([C@@H]3O[C@H](SC)[C@@H](O)[C@H](O)[C@H]3O)c3c(c2Cl)CCC3)cc1 [Compound E048, (2S,3R,4R,5S,6R)-2-(7-Chloro-6-(4-methoxybenzyl)-2,3-dihydro-1H-inden-4-yl)-6-(methylthio)tetrahydro-2H-pyran-3,4,5-triol]	33.7	0.5
CCc1ccc(Cc2cc([C@@H]3O[C@H](CO)[C@@H](O)[C@H](O)[C@H]3O)c3c(c2Cl)OCO3)cc1 [Compound E026, (2S,3R,4R,5S,6R)-2-(7-Chloro-6-(4-ethylbenzyl)benzo[d][1,3]dioxol-4-yl)-6-(hydroxymethyl)tetrahydro-2H-pyran-3,4,5-triol]	86.9	0.4
Cc1ccc(Cc2cc([C@@H]3O[C@H](CO)[C@@H](O)[C@H](O)[C@H]3O)c3c(c2Cl)CCO3)cc1 [Compound E046, (2S,3R,4R,5S,6R)-2-(4-Chloro-5-(4-methylbenzyl)-2,3-dihydrobenzofuran-7-yl)-6-(hydroxymethyl)tetrahydro-2H-pyran-3,4,5-triol]	29.9	1.4
CCOc1ccc(Cc2cc([C@@H]3O[C@H](SC)[C@@H](O)[C@H](O)[C@H]3O)c3c(c2Cl)OCCO3)cc1 [Compound E021, (2S,3R,4R,5S,6R)-2-(8-Chloro-7-(4-ethoxybenzyl)-2,3-dihydrobenzo[b][1,4]dioxin-5-yl)-6-(methylthio)tetrahydro-2H-pyran-3,4,5-triol]	166	0.71
CCc1ccc(Cc2cc([C@@H]3O[C@H](CO)[C@@H](O)[C@H](O)[C@H]3O)c3c(c2Cl)CCO3)cc1 [Compound E008, (2S,3R,4R,5S,6R)-2-(4-Chloro-5-(4-ethylbenzyl)-2,3-dihydrobenzofuran-7-yl)-6-(hydroxymethyl)tetrahydro-2H-pyran-3,4,5-triol]	44	0.88

Next, values leading:

IC50 [1] [nM]	IC50 [2] [nM]	SMILES
9.6	0.6	COc1ccc(Cc2cc([C@@H]3O[C@H](CO)[C@@H](O)[C@H](O)[C@H]3O)c3c(c2Cl)CCCC3)cc1 [Compound E038, (2S,3R,4R,5S,6R)-2-(4-Chloro-3-(4-methoxybenzyl)-5,6,7,8-tetrahydronaphthalen-1-yl)-6-(hydroxymethyl)tetrahydro-2H-pyran-3,4,5-triol]
77.2	1.6	CCOc1ccc(Cc2cc([C@@H]3O[C@H](CO)[C@@H](O)[C@H](O)[C@H]3O)c3c(c2Cl)CCCO3)cc1 [Compound E009, (2S,3R,4R,5S,6R)-2-(5-Chloro-6-(4-ethoxybenzyl)chroman-8-yl)-6-(hydroxymethyl)tetrahydro-2H-pyran-3,4,5-triol]
33.2	0.62	CCOc1ccc(Cc2cc([C@@H]3O[C@H](CO)[C@@H](O)[C@H](O)[C@H]3O)c3c(c2Cl)CCCC3)cc1 [Compound E039, (2S,3R,4R,5S,6R)-2-(4-Chloro-3-(4-ethoxybenzyl)-5,6,7,8-tetrahydronaphthalen-1-yl)-6-(hydroxymethyl)tetrahydro-2H-pyran-3,4,5-triol]
116	0.55	CCOc1ccc(Cc2cc([C@@H]3O[C@H](CO)[C@@H](O)[C@H](O)[C@H]3O)c3c(c2Cl)CCC3)cc1 [Compound E006, (2S,3R,4R,5S,6R)-2-(7-Chloro-6-(4-ethoxybenzyl)-2,3-dihydro-1H-inden-4-yl)-6-(hydroxymethyl)tetrahydro-2H-pyran-3,4,5-triol]
10.7	0.55	COc1ccc(Cc2cc([C@@H]3O[C@H](CO)[C@@H](O)[C@H](O)[C@H]3O)c3c(c2Cl)SCCC3)cc1 [Compound E036, (2S,3R,4R,5S,6R)-2-(8-Chloro-7-(4-methoxybenzyl)thiochroman-5-yl)-6-(hydroxymethyl)tetrahydro-2H-pyran-3,4,5-triol]
37.2	0.68	COc1ccc(Cc2cc([C@@H]3O[C@H](CO)[C@@H](O)[C@H](O)[C@H]3O)c3c(c2Cl)CCC3)cc1 [Compound E004, (2S,3R,4R,5S,6R)-2-(7-Chloro-6-(4-methoxybenzyl)-2,3-dihydro-1H-inden-4-yl)-6-(hydroxymethyl)tetrahydro-2H-pyran-3,4,5-triol]
78.1	2.1	COc1ccc(Cc2cc([C@@H]3O[C@H](CO)[C@@H](O)[C@H](O)[C@H]3O)c3c(c2Cl)OCCC3)cc1 [Compound E023, (2S,3R,4R,5S,6R)-2-(8-Chloro-7-(4-methoxybenzyl)chroman-5-yl)-6-(hydroxymethyl)tetrahydro-2H-pyran-3,4,5-triol]
16.5	0.73	COc1ccc(Cc2cc([C@@H]3O[C@H](CO)[C@@H](O)[C@H](O)[C@H]3O)c3c(c2C(F)F)CCC3)cc1 [Compound E032, (2S,3R,4R,5S,6R)-2-(7-(Difluoromethyl)-6-(4-methoxybenzyl)-2,3-dihydro-1H-inden-4-yl)-6-(hydroxymethyl)tetrahydro-2H-pyran-3,4,5-triol]
57.2	0.63	CCc1ccc(Cc2cc([C@@H]3O[C@H](CO)[C@@H](O)[C@H](O)[C@H]3O)c3c(c2Cl)CCC3)cc1 [Compound E033, (2S,3R,4R,5S,6R)-2-(7-Chloro-6-(4-ethylbenzyl)-2,3-dihydro-1H-inden-4-yl)-6-(hydroxymethyl)tetrahydro-2H-pyran-3,4,5-triol]
45.4	0.61	CCc1ccc(Cc2cc([C@@H]3O[C@H](CO)[C@@H](O)[C@H](O)[C@H]3O)c3c(c2Br)CCC3)cc1 [Compound E003, (2S,3R,4R,5S,6R)-2-(7-Bromo-6-(4-ethylbenzyl)-2,3-dihydro-1H-inden-4-yl)-6-(hydroxymethyl)tetrahydro-2H-pyran-3,4,5-triol]

Source: patent US9340521B2, “Method for dual inhibition of SGLT1 and SGLT2 using diphenylmethane derivatives” (GREEN CROSS CORPORATION, priority 2013, dated 2016)
